From patent US12128019B1, “Nanocomposite including abscisic acid-loaded collagen nanoparticles” (KING FAISAL UNIVERSITY, priority 2023, dated 2024) come the findings set out here.

One series relates to NHSF cell line. Kind of series: In vitro cytotoxicity and cell viability, optical microscope. It counts as cell-based. As to the method:
On the NHSF cell line, the cytotoxic effect of ABA alone and collagen nanoparticles loaded with ABA was investigated with serial double-fold dilutions at an initial dose of 50 μMABA. ABA loaded with collagen nanoparticles was dissolved in ethanol, 0.0264 g/mL stock solutions, which were then serially diluted in a complete growth medium to make the different concentrations used in cytotoxicity assays. The cytotoxicity of each drug against the NHSF cell line was determined using an optical microscope. After a 24-hour incubation period at 37° C., exponentially developing cells were seeded in 96-well flat-bottomed microplates and subjected to drug doses for […].
After exposure of the NHSF cell line to each experimental drug, the reactions were allowed to proceed in an incubator (37° C./5% CO2/95% humidity) for 24 hours and 72 hours of time. Cell viability was recorded through an optical microscope, which is one of the methods generally used to detect cell proliferation or toxicity.
After 24 hours, cell growth rates in different types of ABA and “Marine Collagen Nanoparticles (MCNPs) with ABA were observed under an optical microscope. Cells were also cultured in media containing ethanol in an incubator (37° C./5% CO2/95% humidity) and then observed under an optical microscope.

Series [1] has as its system cardiac enzymes; troponin, LDH, and CK. Kind of series: Biological cardiac markers in serum, MI rats. It counts as in vivo. The following applies: for Cardiac enzyme levels: serum troponin, LDH, CK. The procedure: (§1) Four groups of rats were injected with adrenaline (2 mg/kg, s.c.) as a single dose for 2 consecutive days (24 h apart) to induce myocardial infarction (MI) while an additional rat group was used as control. Treatment of the rat groups is set forth below.
(§2) Group 1: (Control negative group): rats were injected intraperitoneally (i.p.) with physiological saline 0.2 ml/day for one week.
(§3) Group 2 (MI group): rats were injected with adrenaline (2 mg/kg, s.c.) as a single dose for 2 consecutive days (24 h apart) to induce MI.
(§4) Group 3 (MI+ABA carrying on collagen nanoparticle): rats were injected with adrenaline (2 mg/kg, s.c.) as a single dose for 2 consecutive days (24 h apart) to induce MI and ABA-loaded collagen nanoparticle were administered with adrenaline by oral gavage for one week 1 mg/kg/day of.
(§5) Group 4 (MI+Trimetazidine): rats were injected with adrenaline (2 mg/kg, s.c.) as a single dose for 2 consecutive days (24 h apart) to induce MI and Trimetazidine (Sigma, USA) was administered intraperitoneally with adrenaline at 10 mg/kg/day for one week. Trimetazidine was injected intraperitoneally in the low-dose group (10 mg/kg).
(§6) Group 5 (MI+Collagen nanoparticle) group: rats were injected with adrenaline (2 mg/kg, s.c.) as a single dose for 2 consecutive days (24 h apart) to induce MI Collagen nanoparticle was administered along with adrenaline by oral gavage for one week at 1 mg/kg/day.
(§7) Group 6 (MI+ABA carrying on collagen nanoparticle+Trimetazidine) group: rats were injected with adrenaline (2 mg/kg, s.c.) as a single dose for 2 consecutive days (24 h apart) to induce MI, and ABA-loaded collagen nanoparticle were administered (1 mg/kg/day) by oral gavage and 10 mg/kg/day with Trimetazidine administered intraperitoneally (i.p.) along with adrenaline for one week.

Series [2] relates to adrenaline-induced myocardial infarction (MI). Kind of series: Electrocardiogram and haemodynamic assessment in adrenaline-induced MI rats. The class given is in vivo. To be noted: for ECG finding: MI rats, FIGS. 3A-3E; for COP (mean) / HR (mean) / RR (interval) / ST height / carotid flow mean: rats, adrenaline 2 mg/kg s.c. on 2 consecutive days, treatment for one week. The procedure: as §1, §2, §3, §4, §5, §6, §7

The subject of series [3] is oxidative stress markers and antioxidant enzymes. Kind of series: Oxidative stress markers and antioxidant enzymes, cardiac contents, MI rats. The class given is in vivo. To be noted: treatment for one week. The procedure: as §1, §2, §3, §4, §5, §6, §7
All treatment drugs improved the marker levels. NO level increased due to adrenaline administration because the role of NO in cardiovascular diseases is complex and controversial.

Series [4] is described as follows: Body and heart weight of experimental rats. The class given is in vivo. The following applies: MI rats, treatment for one week. The procedure:
as §1, §2, §3, §4, §5
Group 5 (MI+Collagen nanoparticle) group: rats were injected with adrenaline (2 mg/kg, s.c.) as a single dose for 2 consecutive days (24 h apart) to induce MI Collagen nanoparticle was administered along with adrenaline by oral gavage for one week at 1 mg/kg/day. […]

Marks after values point to notes of the source that are not given here.

In the case of `CC1=CC(=O)CC(C)(C)[C@@]1(O)/C=C/C(C)=C\C(=O)O` [ABA, abscisic acid], in the series on NHSF cell line (HSFs culture, after 72 hours), the cell proliferation result was “marked increase of proliferation”. For the same compound, the cell morphology result in the series with NHSF cell line (NHSF cell line, after 24 hours) was “normal morphology of branch- and spindle-shapes”.

As to `CC1=CC(=O)CC(C)(C)C1(O)/C=C/C(C)=C\C(=O)O` (centres unmarked) [Extracted ABA, abscisic acid], the Cardiac enzyme levels entry in series [1] is “decreased toward normal”. In series [2], the ECG finding entry was “still showed pathological changes but with the ST segment nearer to the isoelectric line”, the “COP (mean)” value is on record as 18.57 ± 1.0^b ml/min, the “HR (mean)” value is recorded as 247.4 ± 9.69^cd b/min and the “RR (interval)” value is 0.73 ± 0.03^b sec. In addition, in series [2], the ST height was 42.98 ± 4.05^b mm and the carotid flow mean is reported as 18.06 ± 1.15^b ml/min. In addition, in series [2] (compared to the MI group), the “elevation of COP” value was determined as 73%, the “elevation of SV” value was determined as 93% and the “elevation of carotid blood flow” value was found to be 70%.

For the compound `CC1=CC(=O)CC(C)(C)[C@@]1(O)/C=C/C(C)=C\C(=O)O` [Standard ABA, abscisic acid], the Cardiac enzyme levels result in series [1] is “decreased toward normal”. In addition, in series [2], the ECG finding entry is reported as “still showed pathological changes but with the ST segment nearer to the isoelectric line”, the “COP (mean)” value is 17.52 ± 0.1^b ml/min, the “HR (mean)” value was 255.77 ± 1.23^c b/min and the “RR (interval)” value is reported as 0.7 ± 0.003^c sec. For the same compound, in series [2], the ST height was 39.33 ± 2.15^b mm and the carotid flow mean is 17.4 ± 0.16^b ml/min. Moreover, in series [2] (compared to the MI group), the “elevation of COP” value is 63%, the “elevation of SV” value was 73% and the “elevation of carotid blood flow” value was determined as 63%.

Consider `COc1ccc(CN2CCNCC2)c(OC)c1OC` [Trimetazidine], for which, in series [1] (serum, treatment for one week), the CK-MB was 1.13 ± 0.02^bc U/L, the LDH was 246.67 ± 12.47^d U/L and the Troponin is on record as 1.34 ± 0.03^d ng/ml. In series [2], the ECG finding result is given as “almost normal electrocardiogramith little to no elevation in the ST-segment”, the “COP (mean)” value was 23.9 ± 0.07^a ml/min, the “HR (mean)” value is recorded as 254.17 ± 1.89^c b/min and the “RR (interval)” value is given as 0.75 ± 0.02^a sec. For the same compound, in series [2], the ST height was 27.55 ± 0.49^c mm and the carotid flow mean was 23.75 ± 0.05^a ml/min. Besides, in series [2] (compared to the MI group), the “decrease in the ST segment elevation” value was around 46%. Also, in series [3] (cardiac contents), the Catalase was 132.5 ± 36.08^ab U/g protein, the GSH was 19.59 ± 2.28ª μmol/g protein and the MDA was 4.4 ± 0.26^cde μmol/g protein. Besides, the NO in series [3] is listed as 52.22 ± 0^bc μM/g protein. The Bwt in series [4] (body weight) is 188 ± 1.22^bcd. In addition, the Hwt in series [4] (heart weight) is 1.39 ± 0.03^cd.
